{"source": "patent US20120129769A1", "about": "“ORALLY ADMINISTERABLE PHARMACEUTICAL PREPARATION CONTAINING INSULIN” (priority 2009, published 2012)", "key": {"[1]": {"assay": "Blood sugar (glucose oxidase method) after intraduodenal insulin-acepramin mixture with standard casein (Example 2)", "assay_type": "in vivo, male Wistar rats", "details": "mean±S.D., n=8", "from_the_text": "(§1) Data: mean±S.D. with n=8 by group. Statistics: t-test with Bonferroni correction, after ANOVA."}, "[2]": {"assay": "Blood sugar after oral (feeding probe) insulin with or without ε-amino-caproic acid in starved rats (Example 1)", "assay_type": "in vivo, Male Wistar rats", "details": "n=4", "protocol": "(§2) Male Wistar rats (Charles-River Laboratories, Budapest, Hungary) were used for the experiments. Before the experiment the animals were starved for 16 hours. The experiments started between 8 and 9 h in the morning. 2×6 groups were formed in a random manner, with 4 animals by group. The animals were pretreated through a feeding probe according to the followings: group 1: with 1 g/kg of ε-amino-caproic acid; group 2: with 0.1 U/kg of insulin; group 3: with 0.1 U/kg of insulin and 1 g/kg of ε-amino-caproic acid; group 4: with 1.0 U/kg of insulin; group 5: with 1.0 U/kg of insulin and 1 g/kg of ε-amino-caproic acid; and group 6: with a solvent."}, "α-chymotrypsin": {"molecular_target": "α-chymotrypsin (Bos taurus, UniProt P00766)", "assay": "In vitro stability of insulin in the presence of a protein degrading enzyme (reverse-phase HPLC)", "assay_type": "in vitro ADME", "details": "after 120 minutes; insulin 100 μM, α-chymotrypsin 1.5 μg/10 μl; FIG. 1", "protocol": "FIG. 1: Insulin (100 μM; native) stability in the presence of an equivalent quantity of insulin/ε-amino-caproic acid (acepramin, Sigma, MO) in a solution containing α-chymotrypsin (1.5 μg/10 μl).\nIn vitro stability means the biodegradation of a primitive formulation of the insulin-acepramin mixture in the presence of a protein degrading enzyme, as compared to native insulin (results of reverse-phase HPLC tests)."}, "[3]": {"assay": "Plasma insulin after oral (feeding probe) insulin with or without ε-amino-caproic acid in starved rats (Example 1)", "assay_type": "in vivo, Male Wistar rats", "details": "n=4", "protocol": "as §2"}, "[4]": {"assay": "Plasma insulin immunoreactivity (radioimmunoassay) after intraduodenal insulin-acepramin mixture with standard casein (Example 2)", "details": "mean±S.D., n=8", "protocol": "Healthy male Wistar rats (230-250 g) were given an ε-amino-caproic acid—human recombinant insulin mixture with standard casein intraduodenally. The endpoint of the measurement was the blood sugar measured with the glucose oxidase method, and the plasma insulin immunoreactivity measured with radioimmunoassay 15 and 60 minutes after the administration of the insulin-acepramin formulation (aqueous suspension).\nas §1"}, "[5]": {"details": "15-minute values, insulin 0.1 IU/kg (combination: + 1 g/kg ε-amino-caproic acid)"}, "[6]": {"details": "15-minute values, insulin 1.0 IU/kg (combination: + 1 g/kg ε-amino-caproic acid)"}, "[7]": {"details": "60-minute values, insulin 0.1 IU/kg (combination: + 1 g/kg ε-amino-caproic acid)"}, "[8]": {"details": "60-minute values, insulin 1.0 IU/kg (combination: + 1 g/kg ε-amino-caproic acid)"}}, "data": [{"compound": "NCCCCCC(=O)O", "note": "[ε-amino-caproic acid, reference compound]", "values": [{"measurement": "Blood sugar", "setting": "[1]; 15th minute, 100 mg/kg ε-amino-caproic acid alone", "value": "6.9 ± 1.41", "unit": "mmol/L"}, {"measurement": "Blood sugar", "setting": "[1]; 60th minute, 100 mg/kg ε-amino-caproic acid alone", "value": "7.3 ± 0.95", "unit": "mmol/L"}, {"measurement": "Blood sugar", "setting": "[2]; 15-minute values, 1 g/kg ε-amino-caproic acid alone", "value": "5.43 ± 0.55", "unit": "mmol/L"}, {"measurement": "Blood sugar", "setting": "[2]; 60-minute values, 1 g/kg ε-amino-caproic acid alone", "value": "5.37 ± 0.15", "unit": "mmol/L"}]}, {"compound": "insulin: biotechnologically produced human recombinant insulin, given alone (native, unformulated)", "values": [{"measurement": "insulin degraded", "setting": "α-chymotrypsin", "value": "more than 80%"}, {"measurement": "Plasma insulin", "setting": "[3]; [5]", "value": "10.75 ± 2.21", "unit": "μU/ml"}, {"measurement": "Plasma insulin", "setting": "[3]; [6]", "value": "38.25 ± 6.95", "unit": "μU/ml"}, {"measurement": "Plasma insulin", "setting": "[3]; [7]", "value": "10.8 ± 1.68", "unit": "μU/ml"}, {"measurement": "Plasma insulin", "setting": "[3]; [8]", "value": "23.87 ± 4.05", "unit": "μU/ml"}, {"measurement": "Blood sugar", "setting": "[1]; 15th minute, insulin 0.1 IU/kg (combination: + 100 mg/kg Acepramin), standard casein", "value": "7.9 ± 0.92", "unit": "mmol/L"}, {"measurement": "Blood sugar", "setting": "[1]; 15th minute, insulin 1.0 IU/kg (combination: + 100 mg/kg ε-amino-caproic acid), standard casein", "value": "7.7 ± 2.31", "unit": "mmol/L"}, {"measurement": "Blood sugar", "setting": "[1]; 60th minute, insulin 0.1 IU/kg (combination: + 100 mg/kg ε-amino-caproic acid), standard casein", "value": "7.9 ± 0.83", "unit": "mmol/L"}, {"measurement": "Blood sugar", "setting": "[1]; 60th minute, insulin 1.0 IU/kg (combination: + 100 mg/kg ε-amino-caproic acid), standard casein", "value": "6.9 ± 0.62", "unit": "mmol/L"}, {"measurement": "Plasma insulin", "setting": "[4]; 15th minute, insulin 0.1 IU/kg (combination: + 100 mg/kg Acepramin)", "value": "14.4 ± 1.51", "unit": "μU/ml"}, {"measurement": "Plasma insulin", "setting": "[4]; 15th minute, insulin 1.0 IU/kg (combination: + 100 mg/kg ε-amino-caproic acid)", "value": "27.5 ± 3.95", "unit": "μU/ml"}, {"measurement": "Plasma insulin", "setting": "[4]; 60th minute, insulin 0.1 IU/kg (combination: + 100 mg/kg ε-amino-caproic acid)", "value": "17.3 ± 2.94", "unit": "μU/ml"}, {"measurement": "Plasma insulin", "setting": "[4]; 60th minute, insulin 1.0 IU/kg (combination: + 100 mg/kg ε-amino-caproic acid)", "value": "17.1 ± 2.06", "unit": "μU/ml"}, {"measurement": "Blood sugar", "setting": "[2]; [5]", "value": "5.96 ± 0.21", "unit": "mmol/L"}, {"measurement": "Blood sugar", "setting": "[2]; [6]", "value": "5.77 ± 0.22", "unit": "mmol/L"}, {"measurement": "Blood sugar", "setting": "[2]; [7]", "value": "4.97 ± 0.40", "unit": "mmol/L"}, {"measurement": "Blood sugar", "setting": "[2]; [8]", "value": "4.67 ± 0.41", "unit": "mmol/L"}]}]}
